Measurements published in patent US20180065917A1, “IMMUNE CHECKPOINT INHIBITORS, COMPOSITIONS AND METHODS THEREOF” (Polaris Pharmaceuticals, Inc., priority 2016, published 2018).
Where a name gives a salt, the structure may show the parent alone.

Target: T1, PD-L1/PD-1 complex formation (Homo sapiens, UniProt Q9NZQ7)
T1 construct: purchased BPS Bioscience
Test: PD-L1/PD-1 Interaction Assay (ELISA platform)
Type: binding
Settings: human PD-1-Fc coated plates, PD-L1-Fc-biotin 0.1 μg/ml, compounds pre-incubated 2 hours
Protocol: The ability of compounds to block PD-L1/PD-1 complex formation was evaluated using biochemical interaction assay based on the ELISA platform.
EIA/RIA high binding 96-well plates (Costar) were coated with human PD-1-Fc protein diluted in PBS to 0.5 μg/ml overnight at 4° C. The PD-1-Fc coated plates were washed in PBST and blocked in blocking buffer (2% BSA in PBST). Serially diluted compounds were pre-incubated with PD-L1-Fc-biotin (0.1 μg/ml final) for 2 hours on a shaker at room temperature. The PD-1-Fc coated plates were washed with PBST and solutions containing PD-L1 and compounds were added to the plates. The PD-1-Fc coated plates were incubated with PD-L1 and compound solution for 2 hours on a shaker at room temperature. After the incubation unbound PD-L1 was washed away with PBST and plates were incubated with the blocking buffer for 10 minutes. The bound PD-L1-Fc-biotin was detected with streptavidin-HRP and TMB substrate. The plates were read at OD450 nm in a plate reader (i3 from Molecular Devices) and percentages of inhibition of PD-L1/PD-1 complex formation were calculated.
PD-1-Fc protein was made at Polaris and PD-L1-Fc was purchased from BPS Bioscience.

T1 sequence (Q9NZQ7 19-239 limits assumed, one chain of several): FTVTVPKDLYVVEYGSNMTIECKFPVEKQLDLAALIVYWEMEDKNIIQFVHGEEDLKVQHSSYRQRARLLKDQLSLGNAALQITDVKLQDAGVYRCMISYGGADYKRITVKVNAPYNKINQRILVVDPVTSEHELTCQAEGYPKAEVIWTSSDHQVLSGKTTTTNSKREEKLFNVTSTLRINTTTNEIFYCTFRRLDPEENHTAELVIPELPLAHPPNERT

Row | IC50 [nM] | Compound
1 | 0.1 to 10 | Cc1c(COc2ccc(CN3CCCC[C@H]3C(=O)O)cc2Br)cccc1-c1cccc(COc2ccc(CN3CCCC[C@H]3C(=O)O)cc2Br)c1C [Example 1, (2S,2′S)-1,1′-(((((2,2′-dimethyl-[1,1′-biphenyl]-3,3′-diyl)bis(methylene))bis(oxy))bis(3-bromo-4,1-phenylene))bis(methylene))bis(piperidine-2-carboxylic acid)]
2 | 11 to 100 | CC(=O)NCCNCc1ccc(OCc2cccc(-c3cccc(COc4ccc(CNCCNC(C)=O)cc4Br)c3C)c2C)c(Br)c1 [Example 6, N,N′-(((((((2,2′-Dimethyl-[1,1′-biphenyl]-3,3′-diyl)bis(methylene))bis(oxy))bis(3-bromo-4,1-phenylene))bis(methylene))bis(azanediyl))bis(ethane-2,1-diyl))diacetamide]
3 | 0.1 to 10 | Cc1c(COc2ccc(CN3C[C@@H](O)C[C@H]3C(=O)O)cc2Br)cccc1-c1cccc(COc2ccc(CN3C[C@@H](O)C[C@H]3C(=O)O)cc2Br)c1C [Example 7, (2S,2'S,4S,4′S)-1,1′-(((((2,2′-Dimethyl-[1,1′-biphenyl]-3,3′-diyl)bis(methylene))bis(oxy))bis(3-bromo-4,1-phenylene))bis(methylene))bis(4-hydroxypyrrolidine-2-carboxylic acid)]

Tested on: not given
Test: not given
Settings: not given

Row | melting point | Compound
4 | 136 to 140 °C | Cc1c(COc2ccc(CNCCO)cc2Br)cccc1-c1cccc(COc2ccc(CNCCO)cc2Br)c1C (as salt: trifluoroacetic acid salt) [Example 5, 2,2′-((((((2,2′-Dimethyl-[1,1′-biphenyl]-3,3′-diyl)bis(methylene))bis(oxy))bis(3-bromo-4,1-phenylene))bis(methylene))bis(azanediyl))bis(ethan-1-ol) di-trifluoroacetic acid salt]
5 | 230 to 234 °C | Cc1c(COc2ccc(CNC(C)(C)C(=O)O)cc2Br)cccc1-c1cccc(COc2ccc(CNC(C)(C)C(=O)O)cc2Br)c1C (as salt: trifluoroacetic acid salt) [Example 14, 2,2′-((((((2,2′-Dimethyl-[1,1′-biphenyl]-3,3′-diyl)bis(methylene))bis(oxy))bis(3-bromo-4,1-phenylene))bis(methylene))bis(azanediyl))bis(2-methylpropanoic acid) di-trifluoroacetic acid salt]
6 | 243 to 247 °C | Cc1c(COc2ccc(CN[C@@H](C)C(=O)O)cc2Br)cccc1-c1cccc(COc2ccc(CN[C@@H](C)C(=O)O)cc2Br)c1C (as salt: trifluoroacetic acid salt) [Example 15, (2S,2′S)-2,2′-((((((2,2′-Dimethyl-[1,1′-biphenyl]-3,3′-diyl)bis(methylene))bis(oxy))bis(3-bromo-4,1-phenylene))bis(methylene))bis(azanediyl))dipropionic acid di-trifluoroacetic acid salt]
7 | 186 to 190 °C | Cc1c(COc2ccc(CN[C@H](C)C(=O)O)cc2Br)cccc1-c1cccc(COc2ccc(CN[C@H](C)C(=O)O)cc2Br)c1C (as salt: trifluoroacetic acid salt) [Example 16, (2R,2′R)-2,2′-((((((2,2′-Dimethyl-[1,1′-biphenyl]-3,3′-diyl)bis(methylene))bis(oxy))bis(3-bromo-4,1-phenylene))bis(methylene))bis(azanediyl))dipropionic acid di-trifluoroacetic acid salt]
8 | 156 to 160 °C | Cc1c(COc2ccc(CN[C@H](CO)C(=O)O)cc2Br)cccc1-c1cccc(COc2ccc(CN[C@H](CO)C(=O)O)cc2Br)c1C (as salt: trifluoroacetic acid salt) [Example 17, (2R,2′R)-2,2′-((((((2,2′-Dimethyl-[1,1′-biphenyl]-3,3′-diyl)bis(methylene))bis(oxy))bis(3-bromo-4,1-phenylene))bis(methylene))bis(azanediyl))bis(3-hydroxypropanoic acid) di-trifluoroacetic acid salt]
9 | 227 to 231 °C | Cc1c(COc2ccc(CN[C@@H](C(=O)O)[C@H](C)O)cc2Br)cccc1-c1cccc(COc2ccc(CN[C@@H](C(=O)O)[C@H](C)O)cc2Br)c1C (as salt: trifluoroacetic acid salt) [Example 18, (2R,2′R,3S,3′S)-2,2′-((((((2,2′-Dimethyl-[1,1′-biphenyl]-3,3′-diyl)bis(methylene))bis(oxy))bis(3-bromo-4,1-phenylene))bis(methylene))bis(azanediyl))bis(3-hydroxybutanoic acid) di-trifluoroacetic acid salt]
10 | 175 °C (dec.) | C#Cc1cc(CN2CCCC[C@H]2C(=O)O)ccc1OCc1cccc(-c2cccc(COc3ccc(CN4CCCC[C@H]4C(=O)O)cc3C#C)c2C)c1C (as salt: trifluoroacetic acid salt) [Example 26, (2S,2′S)-1,1′-(((((2,2′-Dimethyl-[1,1′-biphenyl]-3,3′-diyl)bis(methylene))bis(oxy))bis(3-ethynyl-4,1-phenylene))bis(methylene))bis(piperidine-2-carboxylic acid) di-trifluoroacetic acid salt]
11 | 131 to 135 °C | CCc1cc(CN2CCCC[C@H]2C(=O)O)ccc1OCc1cccc(-c2cccc(COc3ccc(CN4CCCC[C@H]4C(=O)O)cc3CC)c2C)c1C (as salt: trifluoroacetic acid salt) [Example 27, (2S,2′S)-1,1′-(((((2,2′-Dimethyl-[1,1′-biphenyl]-3,3′-diyl)bis(methylene))bis(oxy))bis(3-ethyl-4,1-phenylene))bis(methylene))bis(piperidine-2-carboxylic acid) di-trifluoroacetic acid salt]
12 | 134 to 138 °C | CSc1cc(CN2CCCC[C@H]2C(=O)O)ccc1OCc1cccc(-c2cccc(COc3ccc(CN4CCCC[C@H]4C(=O)O)cc3SC)c2C)c1C (as salt: trifluoroacetic acid salt) [Example 28, (2S,2′S)-1,1′-(((((2,2′-Dimethyl-[1,1′-biphenyl]-3,3′-diyl)bis(methylene))bis(oxy))bis(3-(methylthio)-4,1-phenylene))bis(methylene))bis(piperidine-2-carboxylic acid) di-trifluoroacetic acid salt]
13 | 142 to 146 °C | Cc1c(COc2ccc(CN3CCCC[C@H]3C(=O)O)cc2C(F)F)cccc1-c1cccc(COc2ccc(CN3CCCC[C@H]3C(=O)O)cc2C(F)F)c1C (as salt: trifluoroacetic acid salt) [Example 29, (2S,2′S)-1,1′-(((((2,2′-Dimethyl-[1,1′-biphenyl]-3,3′-diyl)bis(methylene))bis(oxy))bis(3-(difluoromethyl)-4,1-phenylene))bis(methylene))bis(piperidine-2-carboxylic acid) di-trifluoroacetic acid salt]
14 | 223 to 227 °C | Cc1c(COc2ccc(CN(CC(=O)O)CC(=O)O)cc2Br)cccc1-c1cccc(COc2ccc(CN(CC(=O)O)CC(=O)O)cc2Br)c1C (as salt: trifluoroacetic acid salt) [Example 30, 2,2′,2″,2′″-((((((2,2′-Dimethyl-[1,1′-biphenyl]-3,3′-diyl)bis(methylene))bis(oxy))bis(3-bromo-4,1-phenylene))bis(methylene))bis(azanetriyl))tetraacetic acid di-trifluoroacetic acid salt]
15 | 118 to 122 °C | Cc1c(COc2ccc(CN(CCO)CCO)cc2Br)cccc1-c1cccc(COc2ccc(CN(CCO)CCO)cc2Br)c1C (as salt: trifluoroacetic acid salt) [Example 31, 2,2′,2″,2′″-((((((2,2′-Dimethyl-[1,1′-biphenyl]-3,3′-diyl)bis(methylene))bis(oxy))bis(3-bromo-4,1-phenylene))bis(methylene))bis(azanetriyl))tetrakis(ethan-1-ol) di-trifluoroacetic acid salt]
16 | 148 to 152 °C | Cc1c(COc2ccc(CNC(CO)CO)cc2Br)cccc1-c1cccc(COc2ccc(CNC(CO)CO)cc2Br)c1C (as salt: trifluoroacetic acid salt) [Example 32, 2,2′-((((((2,2′-Dimethyl-[1,1′-biphenyl]-3,3′-diyl)bis(methylene))bis(oxy))bis(3-bromo-4,1-phenylene))bis(methylene))bis(azanediyl))bis(propane-1,3-diol) di-trifluoroacetic acid salt]
17 | 134 to 138 °C | Cc1c(COc2ccc(CNC(C)(CO)CO)cc2Br)cccc1-c1cccc(COc2ccc(CNC(C)(CO)CO)cc2Br)c1C (as salt: trifluoroacetic acid salt) [Example 33, 2,2′-((((((2,2′-Dimethyl-[1,1′-biphenyl]-3,3′-diyl)bis(methylene))bis(oxy))bis(3-bromo-4,1-phenylene))bis(methylene))bis(azanediyl))bis(2-methylpropane-1,3-diol) di-trifluoroacetic acid salt]
18 | 196 to 200 °C | Cc1c(COc2ccc(CN3CCCC[C@H]3C(=O)O)cc2C#N)cccc1-c1cccc(COc2ccc(CN3CCCC[C@H]3C(=O)O)cc2C#N)c1C (as salt: trifluoroacetic acid salt) [Example 34, (2S,2′S)-1,1′-(((((2,2′-dimethyl-[1,1′-biphenyl]-3,3′-diyl)bis(methylene))bis(oxy))bis(3-cyano-4,1-phenylene))bis(methylene))bis(piperidine-2-carboxylic acid) di-trifluoroacetic acid salt]
19 | 222 to 226 °C | Cc1c(COc2ccc(CN3CCCC[C@H]3C(=O)O)cc2Br)cccc1-c1cccc(COc2ccc(CN3CCCC[C@H]3C(=O)O)cc2Br)c1C [Example 1, (2S,2′S)-1,1′-(((((2,2′-dimethyl-[1,1′-biphenyl]-3,3′-diyl)bis(methylene))bis(oxy))bis(3-bromo-4,1-phenylene))bis(methylene))bis(piperidine-2-carboxylic acid)]
20 | 95 to 99 °C | CC(=O)NCCNCc1ccc(OCc2cccc(-c3cccc(COc4ccc(CNCCNC(C)=O)cc4Br)c3C)c2C)c(Br)c1 [Example 6, N,N′-(((((((2,2′-Dimethyl-[1,1′-biphenyl]-3,3′-diyl)bis(methylene))bis(oxy))bis(3-bromo-4,1-phenylene))bis(methylene))bis(azanediyl))bis(ethane-2,1-diyl))diacetamide]
21 | 260 to 264 °C | Cc1c(COc2ccc(CN3C[C@@H](O)C[C@H]3C(=O)O)cc2Br)cccc1-c1cccc(COc2ccc(CN3C[C@@H](O)C[C@H]3C(=O)O)cc2Br)c1C [Example 7, (2S,2'S,4S,4′S)-1,1′-(((((2,2′-Dimethyl-[1,1′-biphenyl]-3,3′-diyl)bis(methylene))bis(oxy))bis(3-bromo-4,1-phenylene))bis(methylene))bis(4-hydroxypyrrolidine-2-carboxylic acid)]
